Experiment: molar heat capacity at constant pressure; xn = mol fraction of the nth substance listed
Conditions: 101 kPa, Small sample (50 mg) DSC

CC(O)CN (stereo unspecified) [1-amino-2-propanol] + O
Conditions | molar heat capacity at constant pressure [J/K/mol]
126.79 K, Glass, x1 = 0.15 | 27.11
126.79 K, Glass, x1 = 0.16 | 28.24
126.94 K, Glass, x1 = 0.19 | 28.86
127.55 K, Glass, x1 = 0.19 | 28.57
127.56 K, Glass, x1 = 0.26 | 32.53
127.57 K, Glass, x1 = 0.26 | 32.86
127.69 K, Glass, x1 = 0.15 | 27.64
127.71 K, Glass, x1 = 0.16 | 27.96
127.73 K, Glass, x1 = 0.68 | 51.16
127.76 K, Glass, x1 = 0.68 | 51.16
130.83 K, Glass, x1 = 0.19 | 29.15
130.83 K, Glass, x1 = 0.26 | 33.19
130.96 K, Glass, x1 = 0.15 | 28.71
130.98 K, Glass, x1 = 0.16 | 28.51
131 K, Glass, x1 = 0.68 | 52.86
131.45 K, Glass, x1 = 0.15 | 28.71
131.45 K, Glass, x1 = 0.16 | 30.14
131.61 K, Glass, x1 = 0.19 | 30.31
132.23 K, Glass, x1 = 0.26 | 34.17
132.42 K, Glass, x1 = 0.68 | 52.29
134.1 K, Glass, x1 = 0.19 | 29.73
134.1 K, Glass, x1 = 0.26 | 33.85
134.24 K, Glass, x1 = 0.15 | 29.5
134.25 K, Glass, x1 = 0.16 | 29.05
134.27 K, Glass, x1 = 0.68 | 54
136.13 K, Glass, x1 = 0.15 | 30.3
136.13 K, Glass, x1 = 0.16 | 31.77
136.28 K, Glass, x1 = 0.19 | 32.04
136.9 K, Glass, x1 = 0.26 | 35.49
137.09 K, Glass, x1 = 0.68 | 54.57
140.66 K, Glass, x1 = 0.19 | 31.17
140.66 K, Glass, x1 = 0.26 | 35.49
140.8 K, Glass, x1 = 0.15 | 30.83
140.8 K, Glass, x1 = 0.16 | 33.39
140.81 K, Glass, x1 = 0.15 | 31.63
140.81 K, Glass, x1 = 0.16 | 30.41
140.83 K, Glass, x1 = 0.68 | 56.27
140.96 K, Glass, x1 = 0.19 | 32.9
141.59 K, Glass, x1 = 0.26 | 36.8
141.77 K, Glass, x1 = 0.68 | 55.7
143.95 K, Glass, x1 = 0.19 | 31.75
143.95 K, Glass, x1 = 0.26 | 36.15
144.09 K, Glass, x1 = 0.15 | 31.63
144.1 K, Glass, x1 = 0.16 | 30.95
144.11 K, Glass, x1 = 0.68 | 57.41
145.5 K, Glass, x1 = 0.16 | 34.75
145.65 K, Glass, x1 = 0.19 | 34.35
146.28 K, Glass, x1 = 0.26 | 38.12
146.29 K, Glass, x1 = 0.15 | 33.22
146.45 K, Glass, x1 = 0.68 | 56.84
150.19 K, Glass, x1 = 0.16 | 36.11
150.34 K, Glass, x1 = 0.19 | 35.5
150.53 K, Glass, x1 = 0.19 | 33.48
150.53 K, Glass, x1 = 0.26 | 38.12
150.67 K, Glass, x1 = 0.15 | 33.22
150.68 K, Glass, x1 = 0.16 | 32.31
150.69 K, Glass, x1 = 0.68 | 59.68
150.97 K, Glass, x1 = 0.26 | 39.1
150.99 K, Glass, x1 = 0.15 | 34.29
151.15 K, Glass, x1 = 0.68 | 57.98
153.82 K, Glass, x1 = 0.19 | 34.06
153.82 K, Glass, x1 = 0.26 | 39.1
153.96 K, Glass, x1 = 0.15 | 34.02
153.98 K, Glass, x1 = 0.16 | 33.12
153.98 K, Glass, x1 = 0.68 | 60.82
155.68 K, Glass, x1 = 0.15 | 35.88
155.68 K, Glass, x1 = 0.16 | 37.74
155.68 K, Glass, x1 = 0.19 | 36.94
155.68 K, Glass, x1 = 0.26 | 40.42
155.84 K, Glass, x1 = 0.68 | 59.11
160.38 K, Glass, x1 = 0.16 | 40.45
160.38 K, Glass, x1 = 0.19 | 38.97
160.38 K, Glass, x1 = 0.26 | 42.39
160.4 K, Glass, x1 = 0.15 | 39.07
160.41 K, Glass, x1 = 0.19 | 35.79
160.41 K, Glass, x1 = 0.26 | 41.07
160.54 K, Glass, x1 = 0.68 | 60.82
160.55 K, Glass, x1 = 0.15 | 35.88
160.56 K, Glass, x1 = 0.16 | 34.48
160.57 K, Glass, x1 = 0.68 | 63.09
163.7 K, Glass, x1 = 0.19 | 36.66
163.7 K, Glass, x1 = 0.26 | 42.39
163.84 K, Glass, x1 = 0.15 | 37.74
163.85 K, Glass, x1 = 0.16 | 35.57
163.85 K, Glass, x1 = 0.68 | 64.8
165.08 K, Glass, x1 = 0.19 | 42.72
165.08 K, Glass, x1 = 0.26 | 45.68
165.25 K, Glass, x1 = 0.68 | 64.8
170.29 K, Glass, x1 = 0.19 | 40.7
170.3 K, Glass, x1 = 0.26 | 46
170.45 K, Glass, x1 = 0.68 | 68.21
173.75 K, Glass, x1 = 0.68 | 73.89
183.93 K, Liquid, x1 = 0.26 | 85.44
184.09 K, Liquid, x1 = 0.68 | 124.48
188.66 K, Liquid, x1 = 0.26 | 85.11
188.82 K, Liquid, x1 = 0.68 | 125.62
190.11 K, Liquid, x1 = 0.19 | 83.13
190.11 K, Liquid, x1 = 0.26 | 88.06
190.26 K, Liquid, x1 = 0.15 | 76.81
190.26 K, Liquid, x1 = 0.68 | 135.28
190.27 K, Liquid, x1 = 0.16 | 77.92
193.38 K, Liquid, x1 = 0.26 | 84.78
193.42 K, Liquid, x1 = 0.19 | 81.97
193.42 K, Liquid, x1 = 0.26 | 87.74
193.54 K, Liquid, x1 = 0.68 | 126.75
193.57 K, Liquid, x1 = 0.15 | 76.28
193.58 K, Liquid, x1 = 0.16 | 77.11
193.58 K, Liquid, x1 = 0.68 | 135.28
198.11 K, Liquid, x1 = 0.16 | 79.01
198.11 K, Liquid, x1 = 0.26 | 84.78
198.13 K, Liquid, x1 = 0.15 | 73.89
198.27 K, Liquid, x1 = 0.68 | 126.75
200.05 K, Liquid, x1 = 0.19 | 80.53
200.05 K, Liquid, x1 = 0.26 | 87.74
200.19 K, Liquid, x1 = 0.15 | 76.02
200.19 K, Liquid, x1 = 0.68 | 136.41
200.2 K, Liquid, x1 = 0.16 | 76.29
202.84 K, Liquid, x1 = 0.19 | 80.53
202.84 K, Liquid, x1 = 0.26 | 85.44
202.85 K, Liquid, x1 = 0.16 | 79.28
202.87 K, Liquid, x1 = 0.15 | 74.69
203 K, Liquid, x1 = 0.68 | 126.75
203.35 K, Liquid, x1 = 0.19 | 80.24
203.36 K, Liquid, x1 = 0.26 | 88.06
203.5 K, Liquid, x1 = 0.15 | 75.75
203.5 K, Liquid, x1 = 0.68 | 136.98
203.51 K, Liquid, x1 = 0.16 | 76.29
207.57 K, Liquid, x1 = 0.19 | 80.82
207.57 K, Liquid, x1 = 0.26 | 86.42
207.58 K, Liquid, x1 = 0.16 | 79.82
207.6 K, Liquid, x1 = 0.15 | 75.49

— the NIST ThermoML archive (doi:10.1016/j.tca.2015.02.020)
